Measurements reported in PMC10126150 (2023).

How the values were obtained:
Assay in all cases: Cy3/quencher fluorescence plate reader
Conditions in all cases: 120 mM Na+, 5 mM K+, 1 mM Mg2+, 1 mM Ca2+; 20 mM Tris-HCl, 25 °C; affinity similar to glucose
[1] = test system: glu-1 ADS construct (DNA, aptamer, boronic acid-modified U (Z, T in the source) at 5,7,8,12,15,19,24,26 of strand 1 (MS of Bio-NNGmin: seven of eight coupled)) CCCGTGTTAGATAGTAAGTGCAATCTCGGCTTTCTGTCTCTTATACACATCTGACGCTGCCGACGA/TCGTCGGCAGCGTCAGATGTGTATAAGAGACAGTTTTTTTTTTTTTTTTTTTTTTTTTTAGGGCAGGCTC
[2] = test system: glu-2 ADS construct (DNA, aptamer, boronic acid-modified U (Z, T in the source) at 5,7,8,12,15,19,24,26 of strand 1 (MS of Bio-NNGmin: seven of eight coupled)) CCCGTGTTAGATAGTAAGTGCAATCTCGGCTTTCTGTCTCTTATACACATCTGACGCTGCCGACGA/TCGTCGGCAGCGTCAGATGTGTATAAGAGACAGTTTTTTTTTTTTTTTTTTTTTTTTTCAGGACAGGCTC
[3] = test system: glu-3 ADS construct (DNA, aptamer, boronic acid-modified U (Z, T in the source) at 5,7,8,12,15,19,24,26 of strand 1 (MS of Bio-NNGmin: seven of eight coupled)) CCCGTGTTAGATAGTAAGTGCAATCTCGGCTTTCTGTCTCTTATACACATCTGACGCTGCCGACGA/TCGTCGGCAGCGTCAGATGTGTATAAGAGACAGTTTTTTTTTTTTTTTTTTTTTTTTTTACCAGGAGCTC
[4] = test system: glu-4 ADS construct (DNA, aptamer, boronic acid-modified U (Z, T in the source) at 5,7,8,12,15,19,24,26 of strand 1 (MS of Bio-NNGmin: seven of eight coupled)) CCCGTGTTAGATAGTAAGTGCAATCTCGGCTTTCTGTCTCTTATACACATCTGACGCTGCCGACGA/TCGTCGGCAGCGTCAGATGTGTATAAGAGACAGTTTTTTTTTTTTTTTTTTTTTTTTTACCAGGAGCTTC

Measured: binding

OCC1(O)OC[C@@H](O)[C@@H](O)[C@@H]1O (stereo partly shown)
yes: all assays above
